Measurements taken from patent publication US20260041640A1 (INCYCLIX BIO, LLC, priority 2023, published 2026).
Several values for one entry are separate records, joined by “and”; a condition that tells them apart may be missing. Equal entries are not always repeated. Where two headings read alike, the source gives them in different places.

Assay: First-in-human clinical study: plasma and whole blood PK of INX-315 (oral QD, ASD tablet)
Format: in vivo
Description: All INX-315 tablets were taken at approximately the same time(s) each day.
Samples will also be collected pre-dose on Cycle 1 Days 2, 8, 16, and Day 22, and pre-dose on Day 1 of each subsequent cycle.
Standard non-compartmental PK parameters were estimated.
Geometric mean and geometric CV % will be included in the summary statistics.
PK parameters will be summarized descriptively by dosing cohort. AUC and Cmax values will also be presented in scatter plots. Dose proportionality will be assessed for AUC and Cmax using a power model. The 90% CI of the slope for each PK parameter will be estimated from the model and presented in a summary table.
Cohort 1 enrollment of 6 subjects dosed at 100 mg oral QD was completed in October of 2023.
Patients were upgraded to the 200 mg QD dose level and PK/PD plasma parameters were measured (FIG. 18A).
Patients were administered the 200 mg QD and 300 mg QD dose levels and PK/PD plasma parameters were measured.

[1] = plasma, 100 mg QD cohort, Day 1, individual subjects
[2] = plasma, 100 mg QD cohort, Day 1, median
[3] = plasma, 100 mg QD cohort, Day 15, individual subjects
[4] = plasma, 100 mg QD cohort, Day 15, median
[5] = plasma, 100 mg QD, Day 1, individual patients
[6] = plasma, 100 mg QD, Day 15, individual patients
[7] = plasma, 200 mg QD, Day 1, Cohort 2
[8] = plasma, 200 mg QD, Day 1, individual subjects
[9] = plasma, 200 mg QD, Day 15, Cohort 2
[10] = plasma, 200 mg QD, Day 15, individual subjects
[11] = plasma, 300 mg QD cohort, Day 1, individual subjects
[12] = plasma, 300 mg QD cohort, Day 1, median
[13] = plasma, 300 mg QD cohort, Day 15, individual subjects
[14] = whole blood, 100 mg QD, Day 1, individual patients
[15] = whole blood, 100 mg QD, Day 15, individual patients

## NS(=O)(=O)c1ccc(Nc2ncc3cc4n(c3n2)C2(CCCCC2)C(=O)NN4)cc1 [INX-315]
human, plasma, po, 100 mg, plasma, 100 mg QD cohort, Day 1, median, read-out: Tmax, Median
  Tmax: 4 h
human, plasma, po, 100 mg, plasma, 100 mg QD cohort, Day 1, median, read-out: t1/2, Median (converted)
  half-life: 15.6 h
human, plasma, po, 100 mg, plasma, 100 mg QD cohort, Day 15, geometric mean, read-out: AUClast, Geometric Mean
  AUC(0-t): 3290 ng·h/mL
human, plasma, po, 100 mg, plasma, 100 mg QD cohort, Day 15, geometric mean, read-out: Cmax, Geometric Mean
  Cmax: 211 ng/mL
human, plasma, po, 100 mg, plasma, 100 mg QD cohort, Day 15, individual subjects, read-out: t1/2 (converted)
  half-life: 17.6 h
human, plasma, po, 100 mg, plasma, 100 mg QD cohort, Day 15, median, read-out: AUClast, Median
  AUC(0-t): 3120 ng·h/mL
human, plasma, po, 100 mg, plasma, 100 mg QD cohort, Day 15, median, read-out: Cmax, Median
  Cmax: 217 ng/mL
human, plasma, po, 100 mg, plasma, 100 mg QD cohort, Day 15, median, read-out: Tmax, Median
  Tmax: 6 h
human, whole blood, oral, 100 mg, preliminary data, first two patients, 100 mg QD, read-out: t1/2 (converted)
  half-life: ≥ 15 h
human, whole blood, oral, 100 mg, whole blood, 100 mg QD, Day 1, Cohort 1 (Table 28), read-out: AUClast, geometric mean
  AUC(0-t): 34700 ng·h/mL
human, whole blood, oral, 100 mg, whole blood, 100 mg QD, Day 1, Cohort 1 (Table 28), read-out: Cmax, geometric mean
  Cmax: 2280 ng/mL
human, whole blood, oral, 100 mg, whole blood, 100 mg QD, Day 1, Cohort 1 (Table 28), read-out: Tmax, median
  Tmax: 6 h
human, whole blood, oral, 100 mg, whole blood, 100 mg QD, Day 1, Cohort 1 (Table 28), read-out: t1/2, geometric mean (converted)
  half-life: 17.9 h
human, whole blood, oral, 100 mg, whole blood, 100 mg QD, Day 1 observed, mean of first two patients, read-out: AUC
  AUC: 50600 ng·h/mL
human, whole blood, oral, 100 mg, whole blood, 100 mg QD, Day 1 observed, mean of first two patients, read-out: Cmax
  Cmax: 3000 ng/mL
human, whole blood, oral, 100 mg, whole blood, 100 mg QD, Day 15, Cohort 1 (Table 28), read-out: AUClast, median
  AUC(0-t): 62700 ng·h/mL
human, whole blood, oral, 100 mg, whole blood, 100 mg QD, Day 15, Cohort 1 (Table 28), read-out: Cmax, median
  Cmax: 3580 ng/mL
human, whole blood, oral, 100 mg, whole blood, 100 mg QD, Day 15, Cohort 1 (Table 28), read-out: Tmax, median
  Tmax: 6 h
human, whole blood, oral, 100 mg, whole blood, 100 mg QD, Day 15, individual patients, read-out: t1/2 (converted)
  half-life: 21.6 h
human, whole blood, oral, 100 mg, whole blood, 100 mg QD, Day 15 observed, mean of first two patients, read-out: AUC
  AUC: 116000 ng·h/mL
human, whole blood, oral, 100 mg, whole blood, 100 mg QD, Day 15 observed, mean of first two patients, read-out: Cmax
  Cmax: 5440 ng/mL
human, whole blood, oral, 200 mg, Cohort 2 (200 mg QD), Day 1, individual subjects, read-out: AUC Whole Blood
  AUC: 96600 ng·h/mL
human, whole blood, oral, 300 mg, Cohort 3 (300 mg QD), Day 1, individual subjects, read-out: AUC Whole Blood
  AUC: 134000 ng·h/mL
human, whole blood, oral, 300 mg, Cohort 3 (300 mg QD), Day 15, Tlast = 6 hours, read-out: AUC Whole Blood
  AUC: 43900 ng·h/mL
human, whole blood, oral, 300 mg, Cohort 3 (300 mg QD), Day 15, individual subjects, read-out: AUC Whole Blood
  AUC: 86400 ng·h/mL
plasma, 100 mg QD cohort, Day 1, geometric mean
  Clast, geometric mean: 48.7 ng/mL
[1]
  AUClast: 2410 ng·h/mL and 1840 ng·h/mL and 3300 ng·h/mL and 2160 ng·h/mL and 3360 ng·h/mL and 633 ng·h/mL
  Clast: 42.3 ng/mL and 50.7 ng/mL and 85.2 ng/mL and 31.9 ng/mL and 114 ng/mL and 20 ng/mL
  Cmax: 320 ng/mL and 109 ng/mL and 197 ng/mL and 43.8 ng/mL
  Tlast: 24 h
[2]
  Clast, median: 46.5 ng/mL
  Tlast, Median: 24 h
plasma, 100 mg QD cohort, Day 15, geometric mean
  Clast, geometric mean: 90.6 ng/mL
[3]
  AUClast: 6840 ng·h/mL and 1930 ng·h/mL and 1640 ng·h/mL and 5700 ng·h/mL
  Clast: 188 ng/mL and 65.4 ng/mL and 63.1 ng/mL and 154 ng/mL and 51.2 ng/mL
  Cmax: 424 ng/mL and 96.4 ng/mL and 344 ng/mL
  Tlast: 24 h
  t1/2: 16.0 h
[4]
  Clast, median: 65.4 ng/mL
  Tlast, Median: 24 h
plasma, 100 mg QD versus 200 mg QD
  dose proportionality of exposure (AUC): dose-proportional increase in exposure (or greater)
plasma, 100 mg QD versus 200 mg QD and 300 mg QD
  dose proportionality of exposure: dose-proportional increase in exposure (or greater)
plasma, 100 mg QD, Day 1, Cohort 1 (Table 27)
  Clast, geometric mean: 61.4 ng/mL
[5]
  AUClast: 3410 ng·h/mL and 2160 ng·h/mL and 2510 ng·h/mL and 1990 ng·h/mL
  Clast: 119 ng/mL and 86.3 ng/mL and 33.9 ng/mL and 43.9 ng/mL and 57.0 ng/mL
  Cmax: 194 ng/mL and 197 ng/mL and 179 ng/mL and 326 ng/mL and 119 ng/mL
  Tlast: 24 h
  t1/2: 8.88 h and 11.5 h and 16.7 h
[6]
  AUClast: 5920 ng·h/mL
  Clast: 199 ng/mL and 155 ng/mL
  Cmax: 358 ng/mL
  Tlast: 24 h
  t1/2: 15.2 h
[7]
  Clast, geometric mean: 223 ng/mL
  Clast, median: 261 ng/mL
  Tlast, Median: 24 h
[8]
  AUClast: 7300 ng·h/mL and 11300 ng·h/mL and 19100 ng·h/mL and 4540 ng·h/mL
  Clast: 212 ng/mL and 291 ng/mL and 487 ng/mL and 69.7 ng/mL and 261 ng/mL
  Cmax: 444 ng/mL and 800 ng/mL and 1140 ng/mL and 305 ng/mL
  Tlast: 24 h
[9]
  Clast, geometric mean: 263 ng/mL
  Clast, median: 320 ng/mL
  Tlast, Median: 24 h
[10]
  AUClast: 6560 ng·h/mL and 14300 ng·h/mL and 18100 ng·h/mL and 13200 ng·h/mL
  Clast: 88.8 ng/mL and 324 ng/mL and 521 ng/mL and 317 ng/mL
  Cmax: 1230 ng/mL and 997 ng/mL and 758 ng/mL
  Tlast: 24 h
  t1/2: 10.5 h and 14.3 h
plasma, 300 mg QD cohort, Day 1, geometric mean
  Clast, geometric mean: 213 ng/mL
[11]
  AUClast: 7590 ng·h/mL and 11000 ng·h/mL and 8080 ng·h/mL and 11500 ng·h/mL
  Clast: 148 ng/mL and 135 ng/mL and 303 ng/mL and 219 ng/mL and 331 ng/mL
  Cmax: 550 ng/mL and 490 ng/mL and 812 ng/mL
  Tlast: 24 h
  t1/2: 16.2 h
[12]
  Clast, median: 219 ng/mL
  Tlast, Median: 24 h
[13]
  AUClast: 4430 ng·h/mL
  Clast: 96.8 ng/mL and 359 ng/mL
  Cmax: 840 ng/mL
  Tlast: 24 h and 8 h
  Tmax: 0.5 h
  t1/2: 5.80 h
Whole blood, 100 mg QD, Day 1
  factor by which observed AUC exceeded the model: 9 ×
Whole blood, 100 mg QD, Day 1, Cohort 1 (Table 28)
  Clast, geometric mean: 956 ng/mL
[14]
  AUClast: 60500 ng·h/mL and 40600 ng·h/mL and 37800 ng·h/mL and 32500 ng·h/mL and 13400 ng·h/mL and 43600 ng·h/mL
  Clast: 1840 ng/mL and 1020 ng/mL and 1180 ng/mL and 719 ng/mL and 502 ng/mL and 954 ng/mL
  Cmax: 3430 ng/mL and 2570 ng/mL and 2110 ng/mL and 2710 ng/mL and 805 ng/mL and 3470 ng/mL
  Tlast: 24 h
  t1/2: 22.4 h and 13.9 h and 20.5 h and 14.5 h and 27.4 h and 12.8 h
Whole blood, 100 mg QD, Day 1 observed, mean of first two patients
  Cmin: 1430 ng/mL
Whole blood, 100 mg QD, Day 15, Cohort 1 (Table 28)
  Clast, median: 1670 ng/mL
[15]
  AUClast: 117000 ng·h/mL and 31400 ng·h/mL
  Clast: 3220 ng/mL and 1670 ng/mL and 891 ng/mL
  Cmax: 7290 ng/mL and 1820 ng/mL
  Tlast: 24 h
  t1/2: 18.3 h
Whole blood, 100 mg QD, Day 15 observed, mean of first two patients
  Cmin: 2445 ng/mL
Whole blood, 100 mg QD, d 1, Patients 1 and 2
  Total Area: 60740 and 41732
Whole blood, 100 mg QD, d 15, Patients 1 and 2
  Total Area: 118285 and 65180
